This is an account of results in patent US20120121691A1, “Method for Increasing the Production of a Specific ACYL-Chain Dihydroceramide(s) for Improving the Effectiveness of Cancer Treatments” (priority 2010, published 2012).

SMILES strings stand for the structures.

The test system of experiment [1] is intracellular sphingolipids, COG-LL-317. Put plainly: LC/MS/MS analysis of intracellular sphingolipids, COG-LL-317. Type of experiment: cell-based, human. The note with it: for increase in corresponding dihydroceramide over sphinganine+GT-11 alone: COG-LL-317, fatty acid with sphinganine+GT-11, six hours, P<0.05. On the procedure: (§1) LC/MS/MS analysis of intracellular sphingolipids. Sphingolipids were separated using an Agilent 1200 HPLC (LC) and determined by ESI/MS/MS performed on a AB SCIEX 4000 QTRAP Hybrid Triple Quadrupole/Linear Ion Trap mass spectrometer (MS), operating in a multiple reaction monitoring positive ionization mode as described previously with moderate modifications (25). Briefly, 50 μL of a solution (1 μM) of internal sphingolipid standards (including -sphingosine, -sphinganine, -sphingosine-1-phosphate, and -ceramide) was added to each cell pellet sample. Lipids of each sample were extracted twice with 2 mL of the ethyl acetate/isopropyl alcohol/water (60:28:12; v:v) solvent system. Supernatants were transferred to glass tubes (Kimble Chase) and evaporated under air (10 PSI) at 40° C. After reconstitution in methanol (4 mL), 1 ml of each sample was separated for the determination of lipid phosphate. Remaining sample (3 mL) was dried and used for sphingolipid quantification. For ESI/MS/MS, the dried lipid sample was dissolved in mobile phase A. Samples were injected (10 μL) and separated on a Spectra C8SR, 150×3.0 mm, 3-μm particle size column using gradient-elution (mobile phase A/B, prepared as previously described).
(§2) Data acquisition, peak integration and analyte quantitation were performed using ABI/SCIEX Analyst 1.4.2 Software. Sphingolipid data were normalized to lipid phosphate as previously described (26). Briefly, samples were dried under air (10 PSI) and lipids were extracted using the method of Bligh and Dyer (27). Of importance for phosphate assay, only Kimble Chase disposable borosilicate tubes were used for minimal sample contamination. Organic phase was transferred to glass tubes and a known volume was separated to a new tube and dried at 80° C. Phosphate standards and dried samples were then heated with ashing buffer (water:10 N:70% [40:9:1]) at 160° C. overnight. Samples were then incubated with ammonium molybdate and ascorbic acid as previously described, and absorbance ([…]) was read using a SpectraMax.
Cells were treated for 48 hours with Sa (0-4 μM)+/−GT-11 (0.5 μM) with or without C18:0-, C22:0- or C22:1-fatty acids. Cytotoxicity was measured using DIMSCAN, and data was normalized to control and plotted as survival fraction (y-axis). Gray and white symbols represent long and very long chain fatty acids, respectively. Gray lines encompass data used for sphingolipid correlation analysis with cytotoxicity. Datum point, mean; error bar, SEM. […]
Cytotoxicity was measured using DIMSCAN, and data was normalized to control and plotted as survival fraction (y-axis).

For experiment [2], the system named is intracellular sphingolipids, CCRF-CEM cells. Put plainly: LC/MS/MS analysis of intracellular sphingolipids, CCRF-CEM. Type of experiment: cell-based, human. The settings on record: for increase in corresponding dihydroceramide over sphinganine plus GT-11 alone: fatty acid in addition to sphinganine plus GT-11, six hours, P<0.05. On the procedure: as §1, §2
CCRF-CEM cells were treated with drug/fatty acid vehicles (control), GT-11 (0.5 μM) alone, sphinganine (4 μM) alone or sphinganine (4 μM) plus GT-11 (0.5 μM) for six hours and subsequently prepared for sphingolipid analysis.
CCRF-CEM cells were treated with GT-11 (0.5 μM) alone, sphinganine (1 μM) alone or sphinganine (1 μM) plus GT-11 (0.5 μM) for six hours and prepared for quantitative analysis. DHCers were normalized to control and plotted as fold change (bar, z-axis). * indicates significance, with P<0.05. […] CCRF-CEM cells were treated with sphinganine (1 μM) plus GT-11 (0.5 μM) with and without specific solubilized fatty acids (carbon chain length (CX) and saturation (:X), Ex: C20:1=fatty acid with 20 carbons and one desaturation) for six hours and prepared for quantitative sphingolipid analysis. Dihydroceramides were normalized to control cells that received sphinganine plus GT-11 with no fatty acid and plotted as fold change (bar, z-axis). * indicates significance, with P<0.05.

The mark [3] stands for this setting: fatty acid 5 μM in addition to sphinganine 1 μM plus GT-11 0.5 μM, six hours, P<0.001.
[4] abbreviates: fatty acid in addition to sphinganine, no GT-11, P<0.001.

With `CCCCCCCCCCCCCCCCCCCCCC(=O)O` [C22:0-fatty acid], in experiment [1] (COG-LL-317, fatty acid with 4-HPR 1.1 μM, six hours, P<0.001), the “increase of C22:0-dihydroceramide compared to 4-HPR alone” value was found to be 11 fold. In experiment [1] (COG-LL-317, fatty acid with sphinganine 1 μM plus GT-11 0.5 μM, six hours, P<0.003), the “increase of C22:0-dihydroceramide over sphinganine+GT-11 alone” value is listed as 13 fold. In experiment [1], the “increase in corresponding dihydroceramide over sphinganine+GT-11 alone” value is recorded as “significant increases”. Moreover, in experiment [2] (setting [3]), the “increase in C22:0-DHCer over sphinganine plus GT-11 alone” value came to 32 fold and the “increase in C24:0-DHCer over sphinganine plus GT-11 alone” value is listed as 19 fold. In experiment [2], the “increase in corresponding dihydroceramide over sphinganine plus GT-11 alone” value is “significant increases”. Moreover, in experiment [2] (setting [4]), the “increase in C22:0-Cer over sphinganine alone” value turned out to be 13 fold and the “increase in C24:0-Cer over sphinganine alone” value is 4.6 fold.
Turning to `CCCCCCCC/C=C\CCCCCCCCCCCC(=O)O` [C22:1-fatty acid], the “increase in corresponding dihydroceramide over sphinganine+GT-11 alone” value in experiment [1] is listed as “significant increases”. Further, the “increase in corresponding dihydroceramide over sphinganine plus GT-11 alone” value in experiment [2] was “significant increases”.
